Converted amounts (≈) assume the structure as drawn.
How the values were obtained:
Experiment in all cases: MIC by Steers agar-dilution method on Mueller-Hinton medium
Assay type in all cases: cell-based
[1] = test system: E. coli A20107; conditions: Escherichia coli, A20107
Source text: (§1) Illustrated below is a table showing the minimal inhibitory concentrations (MIC's) of butirosin A, 4'-deoxybutirosin A and compound 11 (BB-K186) against a variety of gram-positive and gram-negativebacteria as obtained by the Steers agar-dilution method on Mueller-Hinton medium.

[2] = test system: E. coli A20732; conditions: Escherichia coli, A20732
Source text: as §1

[3] = test system: E. coli A20895; conditions: Escherichia coli, A20895
Source text: as §1

[4] = test system: E. coli JR35/C600; conditions: Escherichia coli
Source text: as §1

[5] = test system: E. coli JR66/W677; conditions: Escherichia coli
Source text: as §1

[6] = test system: E. coli ML1630; conditions: Escherichia coli, ML1630
Source text: as §1

[7] = test system: E. coli NIHJ; conditions: Escherichia coli
Source text: as §1

[8] = test system: E. coli NR79/W677; conditions: Escherichia coli
Source text: as §1

[9] = test system: E. coli PO1495; conditions: Escherichia coli
Source text: as §1

[10] = test system: E. coli R5; conditions: Escherichia coli, R5
Source text: as §1

[11] = test system: Ent. cloacae A20364; conditions: Enterobacter cloacae, A20364
Source text: as §1

[12] = test system: Ent. cloacae A21006; conditions: Enterobacter cloacae, A21006
Source text: as §1

[13] = test system: K. pneumoniae 22-3038; conditions: Klebsiella pneumoniae, 223038
Source text: as §1

[14] = test system: K. pneumoniae D11; conditions: Klebsiella pneumoniae, D11
Source text: as §1

[15] = test system: Pr. mirabilis A9554; conditions: Proteus mirabilis, A9554
Source text: as §1

[16] = test system: Pr. morganii A20031; conditions: Morganella morganii, A20031
Source text: as §1

[17] = test system: Pr. vulgaris A9436; conditions: Proteus vulgaris, A9436
Source text: as §1

[18] = test system: Prov. stuartii A20894; conditions: Providencia stuartii, A20894
Source text: as §1

[19] = test system: Ps. aeruginosa A20601; conditions: Pseudomonas aeruginosa, A20601
Source text: as §1

[20] = test system: Ps. aeruginosa A20635; conditions: Pseudomonas aeruginosa, A20635
Source text: as §1

[21] = test system: Ps. aeruginosa A20896; conditions: Pseudomonas aeruginosa, A20896
Source text: as §1

[22] = test system: Ps. aeruginosa A9930; conditions: Pseudomonas aeruginosa, A9930
Source text: as §1

[23] = test system: Ps. aeruginosa GN-315; conditions: Pseudomonas aeruginosa, GN315
Source text: as §1

[24] = test system: Ps. aeruginosa No. 130; conditions: Pseudomonas aeruginosa, NO.130
Source text: as §1

[25] = test system: Pseudomonas sp. A20621; conditions: Pseudomonas, SP.A20621
Source text: as §1

[26] = test system: S. aureus A20239; conditions: Staphylococcus aureus, A20239
Source text: as §1

[27] = test system: S. aureus D133; conditions: Staphylococcus aureus, D133
Source text: as §1

[28] = test system: S. aureus D137; conditions: Staphylococcus aureus, D137
Source text: as §1

[29] = test system: S. aureus D193; conditions: Staphylococcus aureus, D193
Source text: as §1

[30] = test system: S. aureus Smith; conditions: Staphylococcus aureus
Source text: as §1

[31] = test system: Ser. marcescens A20019; conditions: Serratia marcescens, A20019
Source text: as §1

[32] = test system: Ser. marcescens A21247; conditions: Serratia marcescens, A21247
Source text: as §1

NCC[C@H](O)C(=O)N[C@@H]1C[C@H](N)[C@@H](O[C@H]2O[C@H](CN)[C@@H](O)[C@H](O)[C@H]2N)[C@H](O[C@@H]2O[C@H](CO)[C@H](O)[C@H]2O)[C@H]1O [Bu-1709A1, butirosin A]
MIC [1]: 50 µg/mL (≈ 90 µM)
MIC [2]: 1.6 µg/mL (≈ 2.88 µM)
MIC [3]: 3.1 µg/mL (≈ 5.58 µM)
MIC [4]: 0.8 µg/mL (≈ 1.44 µM)
MIC [5]: 100 µg/mL (≈ 180 µM)
MIC [6]: 3.1 µg/mL (≈ 5.58 µM)
MIC [7]: 1.6 µg/mL (≈ 2.88 µM)
MIC [8]: > 100 µg/mL
MIC [9]: 1.6 µg/mL (≈ 2.88 µM)
MIC [10]: 3.1 µg/mL (≈ 5.58 µM)
MIC [11]: 1.6 µg/mL (≈ 2.88 µM)
MIC [12]: > 100 µg/mL
MIC [13]: > 100 µg/mL
MIC [14]: 0.8 µg/mL (≈ 1.44 µM)
MIC [15]: 1.6 µg/mL (≈ 2.88 µM)
MIC [16]: 1.6 µg/mL (≈ 2.88 µM)
MIC [17]: 0.4 µg/mL (≈ 0.72 µM)
MIC [18]: > 100 µg/mL
MIC [19]: 50 µg/mL (≈ 90 µM)
MIC [20]: > 100 µg/mL
MIC [21]: > 100 µg/mL
MIC [22]: 6.3 µg/mL (≈ 11.3 µM)
MIC [23]: > 100 µg/mL
MIC [24]: 25 µg/mL (≈ 45 µM)
MIC [25]: 100 µg/mL (≈ 180 µM)
MIC [26]: 25 µg/mL (≈ 45 µM)
MIC [27]: 6.3 µg/mL (≈ 11.3 µM)
MIC [28]: 25 µg/mL (≈ 45 µM)
MIC [29]: 3.1 µg/mL (≈ 5.58 µM)
MIC [30]: 0.8 µg/mL (≈ 1.44 µM)
MIC [31]: 6.3 µg/mL (≈ 11.3 µM)
MIC [32]: 6.3 µg/mL (≈ 11.3 µM)
